Results taken from US10993923B2, “Method for ameliorating fibrosis using 1-[4-chloro-3-(trifluoromethyl)phenyl]-3-[3-(4-cyanophenoxy)phenyl]urea” (priority 2016, dated 2021).

Legend:
[1] = test system: p-STAT3 in mouse fibroblasts (NIH3T3 cell line); assay: Western blot of p-STAT3 in NIH3T3 fibroblasts; type: cell-based; conditions: FIG. 7B
Procedure: (§1) Murine NIH3T3 fibroblasts and human lung epithelial cells (A549 cells) were purchased from the Bioresource Collection and Research Center (Hsinchu, Taiwan). Cells were cultured in Dulbecco's modified eagle medium (DMEM) containing 10% fetal bovine serum (FBS), 100 μg/mL penicillin, 100 μg/mL streptomycin. Cells were cultured at 37° C. in a humidified atmosphere of 5% CO2 and passaged every 4 to 5 days at 1:4 ratios.
(§2) Whole-cell extracts were obtained via RIPA buffer (Millipore, USA) and protein concentrations were quantified via a BCA protein assay kit (Thermo Fisher Scientific, USA). 20 or 25 μg of protein was added to various percentages of SDS-sodium dodecyl sulfate-acrylamide gel and blotted onto a polyvinylidene fluoride (PVDF) membrane. The membrane was then reacted with a primary antibody; after extensive washing, the membrane was reacted with a […] containing a second antibody. Proteins were detected by Immobilon Western Chemiluminescent HRP substrate (Millipore, USA) or ECL detection system (UVP Corporation, USA).
Antibodies for immunoblotting techniques such as anti-E-cadherin, anti-Fibronectin, anti-N-cadherin were purchased from Abcam (UK). […]

[2] = test system: mouse fibroblasts (NIH3T3 cell line); assay: Apoptosis analysis, NIH3T3 fibroblasts; type: cell-based
Procedure: as §1
The measurement of apoptotic cells was conducted by flow cytometry (sub-G1) and cell death detection enzyme-bound immunosorbent assay (ELISA) for cytoplasmic histone associated DNA fragments. The amount of formazan dye was quantified by measuring the absorbance at 570 nm using ELISA reader to calculate the optical density (OD) values. Statistical analysis was determined using Student's t-test, with P<0.05 considered significant.
STAT3 cDNA (KIAA1524) was purchased from Addgene Platinum Corporation. After the transient transfection of STAT3, SHP-1, SHP-1(dN1) mutants and SHP-1(61A) mutant in mouse fibroblasts (NIH3T3 cell line) and human lung epithelial cells (A549 cell line), cells were reacted separately with the 1-[4-chloro-3-(trifluoromethyl)phenyl]-3-[3-(4-cyanophenoxy)phenyl]urea compound and subjected to the Western blotting process. Transfection was performed by X-tremeGENE HP Transfection Reagent (Roche, Germany) following the manufacturer's instructions. […]

[3] = test system: human lung epithelial cells (A549 cell line); assay: TGF-β1-induced epithelial mesenchymal transition (EMT) in A549 cells; type: cell-based
Procedure: as §1, §2
Antibodies for immunoblotting techniques such as anti-E-cadherin, anti-Fibronectin, anti-N-cadherin were purchased from Abcam (UK). Other antibodies such as anti-SHP-1, anti-phosphorylated STAT3(Tyr705), anti-STAT3α-smooth muscle actin (α-SMA) and anti-caspase-9 were purchased from Cell Signaling Corporation ([…], United States).
Smart-pool siRNA, including control (sc-37007) siRNA, siRNA anti-SHP-1, and STAT3, were purchased from Santa Cruz Biotechnology (California, USA).

[4] = test system: BDL-induced cholestasis fibrosis in mice; assay: Bile duct ligation (BDL) fibrosis mice treatment model; type: in vivo, Balb/C mice; conditions: 10 mg/kg from day 8 until sacrifice on day 14 following BDL; FIG. 13C, 13D
Text: In the bile duct ligation (BDL) mouse model, the common bile duct of Balb/C mice was double-ligated and excised. Mice were fed daily with vehicle or 1-[4-chloro-3-(trifluoromethyl)phenyl]-3-[3-(4-cyanophenoxy)phenyl]urea on day 1 or day 8 until they were sacrificed on day 14.
The mice liver samples were stored in 10% formaldehyde, dehydrated with gradient alcohol, embedded in paraffin blocks, sectioned to a thickness of 3 μm, placed on glass slides, and stained with Picrosirius Red Stain kit (ScyTek, USA), following the manufacturer's instructions. The severity of liver fibrosis was graded according to the Ishak fibrosis score. Quantitative collagen-positive area (qCPA) was determined by densitometry via ImageJ software. Hepatic hydroxyproline concentrations were measured by the hydroxyproline assay kit (Biovision, USA), following the manufacturer's instructions Immunohistochemistry was performed by the Leica BOND-MAX automatic chromatograph (Leica Biosystems, Germany), following the manufacturer's instructions.

HSC-T6 cells = assay: Cell viability (MTS), HSC-T6 cells; type: cell-based, rat; conditions: 24 hours; effect more significant than sorafenib; FIG. 14A
Procedure: (§3) Rat immortal hepatic stellate cell line HSC-T6 and LX2 human hepatic stellate cell line were provided by Professor Scott Friedman of Mount Sinai Hospital in New York, USA. The primary mouse HSCs were obtained via the way: after intubating the hepatic portal vein of the mouse, the cells were perfused with Leffert's and ethylene glycol bis-aminoethyl ether tetraacetic acid (EGTA) buffer in situ, and then collagenase was injected to digest the liver tissue, and then the primary mouse HSCs were isolated by Histodnz gradient. […]
(§4) HSC-T6 cells, LX2 cells or primary mouse HSCs cells were seeded in 96-well plates (5,000 cells/well) for 24 hours, and the cells were treated with various concentrations of 1-[4-chloro-3-(trifluoromethyl)phenyl]-3-[3-(4-cyanophenoxy)phenyl]urea or Sorafenib for 24 or 48 hours. The effect of each reagent on the cell viability and the cell were evaluated by CellTiter 96 AQueous one solution of 3-(4,5-dimethylthiazol-2-yl)-5-(3-carboxymethoxyphenyl)-2-(4-sulfophenyl)-2H-tetra zolium, an inner, MTS (Promega, USA). […] The proportion of apoptotic cells was mixed the early (Annexin V+/PI−) and the late (Annexin V+/PI+) apoptotic cells measured by BD FACS Verse flow cytometry (BD, USA).

LX2 cells = assay: Cell viability (MTS), LX2 cells; type: cell-based, human; conditions: 24 hours; effect more significant than sorafenib; FIG. 14A
Procedure: as §3, §4

[5] = test system: hepatic stellate cells (HSC); assay: Western blot in hepatic stellate cells (cell line not given); type: cell-based
Procedure: Rat immortal hepatic stellate cell line HSC-T6 and LX2 human hepatic stellate cell line were provided by Professor Scott Friedman of Mount Sinai Hospital in New York, USA. The primary mouse HSCs were obtained via the way: after intubating the hepatic portal vein of the mouse, the cells were perfused with Leffert's and ethylene glycol bis-aminoethyl ether tetraacetic acid (EGTA) buffer in situ, and then collagenase was injected to digest the liver tissue, and then the primary mouse HSCs were isolated by Histodnz gradient. HSC-T6 cells were cultured in Waymouth medium; LX2 cells and primary mouse HSCs were cultured in Dulbecco's Modified Eagle Medium (DMEM) containing 10% fetal bovine serum (FBS), 100 μg/mL penicillin, 100 μg/mL streptomycin, and 2 mM L-glutamine HSC-T6 cells, LX2 cells and primary mouse HSCs were cultured in a humidified incubator containing 5% carbon dioxide at 37° C. After adding the FBS, the resting HSC is started. For in vitro studies, various concentrations of 1-[4-chloro-3-(trifluoromethyl)phenyl]-3-[3-(4-cyanophenoxy)phenyl]urea and sorafenib were dissolved in dimethyl sulfoxide and subsequently added to cells, which were in 5% FBS, for a predetermined period of time.
as §2, with “Corporation, USA). […]” for “Corporation, USA).”

N#Cc1ccc(Oc2cccc(NC(=O)Nc3ccc(Cl)c(C(F)(F)F)c3)c2)cc1 [1-[4-chloro-3-(trifluoromethyl)phenyl]-3-[3-(4-cyanophenoxy)phenyl]urea]
expression level of p-STAT3 [1]: reduced | compound-induced apoptosis after SHP-1 knockout ([2]; NIH3T3, SHP-1 siRNA, FIG. 7D): offset by SHP-1 knockout | apoptosis of fibrotic cells ([2]; NIH3T3, FIG. 7C): induced apoptosis | effects of the compound (p-STAT3, EMT marker, migration and invasion) after SHP-1 knock out with siRNA ([3]; A549, FIG. 9B): offset the effects | effects of the compound (EMT marker, migration and invasion) after STAT3 knock out ([3]; A549, FIG. 9C): offset the effects | TGF-β1-induced EMT (EMT marker profile) ([3]; A549 exposed to TGF-β1, FIG. 8B): reversed TGF-β1-induced EMT in a dose-dependent manner | migration and invasion of cells ([3]; A549 exposed to TGF-β1, FIGS. 8C and 8D): reduced | quantitative collagen-positive area (qCPA) [4]: significantly reduced | viability of HSC-T6 cells (HSC-T6 cells): dose-dependent effects to reduce the viability | viability of LX2 cells (LX2 cells): dose-dependent effects to reduce the viability | IL-6-induced p-STAT3 upregulation ([5]; 10 μM for 4 hours, then IL-6 100 ng/mL 30 minutes, FIG. 15B): suppressed | cleavage of poly(ADP-ribose) polymerase (PARP) fragments ([5]; Western blotting, FIG. 14C): dose-dependently increased | p-Akt and p-STAT3 after administering AG1295, a specific PDGFR inhibitor ([5]; independent of the PDGFR signaling, FIG. 15D): still downregulated
